Measured values: PubChem BioAssay AID248 (DTP/NCI, 2004)
Several values for one entry are separate records, joined by “and”; a condition that tells them apart may be missing. Identical values can stand only once. Inconclusive results and toxic doses are left out. Cut-off read from the data, not from the text of the source: active = T/C of 150% or more; inactive = T/C below 125%.

Test system: L1210 leukemia ip in BDF1 mice, survival T/C
Assay: NCI In Vivo Anticancer Drug Screen. Data for tumor model L1210 Leukemia (intraperitoneal) in B6D2F1 (BDF1) mice
Conditions: endpoint: mean survival time, higher = longer survival
Summary of the method: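 Ratio derived from survival: compound-dosed mice over vehicle-dosed mice, all bearing a transplantable tumor.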

[1] = dose: 100.0 mg/kg/injection, schedule: Q01DX001 (ip), vehicle: Klucel (hydroxypropylcellulose) (HPC)
[2] = dose: 200.0 mg/kg/injection, schedule: Q01DX001 (ip), vehicle: Klucel (hydroxypropylcellulose) (HPC)
[3] = dose: 400.0 mg/kg/injection, schedule: Q01DX001 (ip), vehicle: Klucel (hydroxypropylcellulose) (HPC)
[4] = dose: 100.0 mg/kg/injection, schedule: Q01DX009 (ip), vehicle: saline with Tween-80
[5] = dose: 100.0 mg/kg/injection, schedule: Q04DX003 (ip), vehicle: saline with Tween-80
[6] = dose: 200.0 mg/kg/injection, schedule: Q01DX009 (ip), vehicle: saline with Tween-80
[7] = dose: 200.0 mg/kg/injection, schedule: Q04DX003 (ip), vehicle: saline with Tween-80
[8] = dose: 400.0 mg/kg/injection, schedule: Q01DX009 (ip), vehicle: saline with Tween-80
[9] = dose: 400.0 mg/kg/injection, schedule: Q04DX003 (ip), vehicle: saline with Tween-80
[10] = dose: 100.0 mg/kg/injection, schedule: Q04DX003 (ip), vehicle: Klucel (hydroxypropylcellulose) (HPC)
[11] = dose: 200.0 mg/kg/injection, schedule: Q04DX003 (ip), vehicle: Klucel (hydroxypropylcellulose) (HPC)
[12] = dose: 100.0 mg/kg/injection, schedule: Q04DX002 (ip), vehicle: Klucel (hydroxypropylcellulose) (HPC)
[13] = dose: 200.0 mg/kg/injection, schedule: Q04DX002 (ip), vehicle: Klucel (hydroxypropylcellulose) (HPC)
[14] = dose: 400.0 mg/kg/injection, schedule: Q04DX002 (ip), vehicle: Klucel (hydroxypropylcellulose) (HPC)
[15] = dose: 100.0 mg/kg/injection, schedule: Q01DX001 (ip), vehicle: saline with Tween-80
[16] = dose: 200.0 mg/kg/injection, schedule: Q01DX001 (ip), vehicle: saline with Tween-80
[17] = dose: 400.0 mg/kg/injection, schedule: Q01DX001 (ip), vehicle: saline with Tween-80
[18] = dose: 100.0 mg/kg/injection, schedule: Q01DX009 (ip), vehicle: Klucel (hydroxypropylcellulose) (HPC)
[19] = dose: 200.0 mg/kg/injection, schedule: Q01DX009 (ip), vehicle: Klucel (hydroxypropylcellulose) (HPC)
[20] = dose: 400.0 mg/kg/injection, schedule: Q01DX009 (ip), vehicle: Klucel (hydroxypropylcellulose) (HPC)

Measured: T/C

NC(=O)c1cc(Cl)cc(Cl)c1N
inactive: [1] 100 % of control | [2] 107 % of control | [3] 111 % of control

C(=NCC(CCN1CCCC1)(CCN1CCCC1)c1cccc2ccccc12)C(CCN1CCCC1)(CCN1CCCC1)c1cccc2ccccc12
inactive: dose: 5.0 mg/kg/injection, schedule: Q01DX009 (ip), vehicle: saline with Tween-80 106 % of control | dose: 6.25 mg/kg/injection, schedule: Q04DX002 (ip), vehicle: saline 92 % of control | dose: 10.0 mg/kg/injection, schedule: Q01DX009 (ip), vehicle: saline with Tween-80 106 % of control | dose: 12.5 mg/kg/injection, schedule: Q04DX002 (ip), vehicle: saline 101 % of control

CSC(=O)Oc1ccc([N+](=O)[O-])cc1
inactive: [4] 106 % of control | [5] 104 % of control | [6] 96 % of control | [7] 100 % of control | [8] 101 % of control | [9] 91 % of control

CCCCCCCCCCCCCCCCCC(=O)C(C)(C)C
inactive: dose: 25.0 mg/kg/injection, schedule: Q01DX001 (ip), vehicle: Klucel (hydroxypropylcellulose) (HPC) 92 % of control | dose: 50.0 mg/kg/injection, schedule: Q01DX001 (ip), vehicle: Klucel (hydroxypropylcellulose) (HPC) 98 % of control | [1] 98 % of control | [2] 98 % of control | [3] 95 % of control

O=[N+]([O-])c1ccc2c(c1)/C(=N/O)CCC2
inactive: [4] 110 % of control | [10] 96 % of control | [6] 92 % of control | [11] 91 % of control | [8] 90 % of control | dose: 400.0 mg/kg/injection, schedule: Q04DX003 (ip), vehicle: Klucel (hydroxypropylcellulose) (HPC) 104 % of control

O=C(O)c1cc(S(=O)(=O)Cl)cc(S(=O)(=O)Cl)c1
inactive: dose: 75.0 mg/kg/injection, schedule: Q01DX001 (ip), vehicle: saline 107 % of control

COc1cc(CC2c3cc(OC)c(OC)cc3CCN2C)c(Oc2cc3c(cc2OC)-c2c(OC)c(OC)c(OC)c4c2C(C3)N(C)CC4)cc1OC (configuration not stated)
inactive: [5] 97 % of control | [7] 97 % of control

COC1OC(CBr)C(OC(C)=O)C(OC(C)=O)C1OS(C)(=O)=O (configuration not stated)
inactive: [12] 100 % of control | [13] 97 % of control | [14] 103 % of control

CC=NCc1ccccc1
inactive: dose: 50.0 mg/kg/injection, schedule: Q01DX009 (sc), vehicle: olive oil, sesame oil, peanut oil 98 % of control | dose: 100.0 mg/kg/injection, schedule: Q01DX009 (sc), vehicle: olive oil, sesame oil, peanut oil 114 % of control | dose: 100.0 mg/kg/injection, schedule: Q04DX003 (sc), vehicle: olive oil, sesame oil, peanut oil 105 % of control | dose: 200.0 mg/kg/injection, schedule: Q04DX003 (sc), vehicle: olive oil, sesame oil, peanut oil 98 % of control

CC(C)CN1CC(Br)C(=O)NC1=O (configuration not stated)
inactive: dose: 25.0 mg/kg/injection, schedule: Q01DX Z (ip), vehicle: methylcellulose (MC) 92 % of control | dose: 50.0 mg/kg/injection, schedule: Q01DX Z (ip), vehicle: methylcellulose (MC) 88 % of control

S=c1cc(-c2ccccc2)ss1
inactive: [4] 98 % of control | [5] 93 % of control and 102 % of control | [6] 89 % of control | [7] 91 % of control and 100 % of control | [8] 96 % of control | [9] 96 % of control and 91 % of control

O=C(O)C(C(=O)O)C1Cc2cccc3cccc1c23 (configuration not stated)
inactive: dose: 25.0 mg/kg/injection, schedule: Q04DX003 (ip), vehicle: saline with Tween-80 96 % of control | dose: 50.0 mg/kg/injection, schedule: Q04DX003 (ip), vehicle: saline with Tween-80 98 % of control | [5] 100 % of control

O=C(O)c1ccccc1C(=O)Nc1ccc(O)cc1
inactive: dose: 75.0 mg/kg/injection, schedule: Q01DX009 (ip), vehicle: saline 102 % of control | dose: 150.0 mg/kg/injection, schedule: Q01DX009 (ip), vehicle: saline 100 % of control | dose: 300.0 mg/kg/injection, schedule: Q01DX009 (ip), vehicle: saline 117 % of control

Cc1ccc(S(=O)NOCCCCONS(=O)c2ccc(C)cc2)cc1 (configuration not stated)
inactive: [15] 98 % of control | [4] 100 % of control and 89 % of control | dose: 100.0 mg/kg/injection, schedule: Q04DX002 (ip), vehicle: saline with Tween-80 96 % of control and 91 % of control | [16] 95 % of control | [6] 86 % of control and 87 % of control | dose: 200.0 mg/kg/injection, schedule: Q04DX002 (ip), vehicle: saline with Tween-80 93 % of control and 98 % of control | [17] 106 % of control | [8] 90 % of control | dose: 400.0 mg/kg/injection, schedule: Q04DX002 (ip), vehicle: saline with Tween-80 104 % of control and 105 % of control

CCC(C)N (configuration not stated)
inactive: dose: 100.0 mg/kg/injection, schedule: Q04DX003 (ip), vehicle: saline 95 % of control | dose: 200.0 mg/kg/injection, schedule: Q04DX003 (ip), vehicle: saline 95 % of control

C/C(=N\Nc1nc2ccccc2o1)c1ccncc1
inactive: dose: 50.0 mg/kg/injection, schedule: Q01DX009 (ip), vehicle: Klucel (hydroxypropylcellulose) (HPC) 105 % of control | [18] 105 % of control | [19] 116 % of control | [20] 108 % of control

COc1c2c(c(OC)c3c(OC)c4ccccc4c(OC)c13)CC=CC2
inactive: dose: 50.0 mg/kg/injection, schedule: Q01DX005 (ip), vehicle: water 94 % of control | dose: 100.0 mg/kg/injection, schedule: Q01DX005 (ip), vehicle: water 87 % of control | dose: 200.0 mg/kg/injection, schedule: Q01DX005 (ip), vehicle: water 89 % of control | dose: 400.0 mg/kg/injection, schedule: Q01DX005 (ip), vehicle: water 87 % of control

O=C(O)Cc1ccc(Cl)cc1Cl
inactive: dose: 50.0 mg/kg/injection, schedule: Q04DX003 (ip), vehicle: Klucel (hydroxypropylcellulose) (HPC) 93 % of control | [10] 98 % of control | [11] 98 % of control

Cc1cc(CC(O)(C(F)(F)F)C(F)(F)F)c(C#N)c(=O)[nH]1
inactive: [5] 97 % of control | [7] 97 % of control | [9] 97 % of control

CC(=O)Oc1cccc(OC(=O)Nc2ccc(C)c(NC(=O)Oc3cccc(OC(C)=O)c3)c2)c1
inactive: [18] 93 % of control | [19] 96 % of control | [20] 94 % of control

Cc1cc(Cl)cc(C)c1OC(=O)Nc1cccc(C(F)(F)F)c1
inactive: [4] 112 % of control | [6] 106 % of control | [8] 101 % of control

C1=CC2CC1CC2CNCCN1CC1 (configuration not stated)
inactive: dose: 10.0 mg/kg/injection, schedule: Q04DX003 (ip), vehicle: saline 106 % of control | dose: 20.0 mg/kg/injection, schedule: Q04DX003 (ip), vehicle: saline 87 % of control

C=C1c2ccccc2N(CC)C1(COc1ccc(Cl)cc1)OC(=O)c1cccc(Cl)c1 (configuration not stated)
inactive: [12] 100 % of control | [13] 95 % of control | [14] 110 % of control

C[S+](C)c1ccccc1NCc1ccccc1O
inactive: [15] 92 % of control | [16] 93 % of control | [17] 90 % of control
